Measured values from ChEMBL document CHEMBL1126495, “A new series of potent LTD4 antagonists in the styrylquinoline class” (Bioorg Med Chem Lett, 1993).

These compounds were tested against T1, Cysteinyl leukotriene receptor 1 (Cavia porcellus, UniProt Q2NNR5) (assay: Inhibition of [3H]LTD4 binding to guinea-pig lung membrane).
T1 sequence (Q2NNR5 whole entry): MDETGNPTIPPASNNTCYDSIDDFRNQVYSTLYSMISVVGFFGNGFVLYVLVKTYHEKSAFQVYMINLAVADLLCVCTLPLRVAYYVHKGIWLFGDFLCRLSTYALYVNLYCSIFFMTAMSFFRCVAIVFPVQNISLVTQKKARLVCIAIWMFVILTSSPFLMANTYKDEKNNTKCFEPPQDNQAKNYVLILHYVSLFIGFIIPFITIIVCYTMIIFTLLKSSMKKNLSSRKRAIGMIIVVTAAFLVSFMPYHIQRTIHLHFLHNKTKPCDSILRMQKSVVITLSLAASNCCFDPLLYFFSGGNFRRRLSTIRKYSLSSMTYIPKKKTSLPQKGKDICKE
Type: tissue-based

Compound	IC50 [nM]
C[C@H](CCC[C@@H](SCCC(C)(C)O)c1cccc(/C=C/c2ccc3ccc(Cl)cc3n2)c1)C(=O)O	0.8
CC(C)(CC[C@H](SCCc1ccccn1)c1cccc(CCc2ccc3ccc(Cl)cc3n2)c1)CC(=O)O	2.2
CC(C)(O)CCCSC(CCC(C)(C)CC(=O)O)c1cccc(/C=C/c2ccc3ccc(Cl)cc3n2)c1 (stereo not drawn)	1.3
C[C@H](CCC[C@@H](SCCC(=O)N(C)C)c1cccc(/C=C/c2ccc3ccc(Cl)cc3n2)c1)C(=O)O	0.9
C[C@H](CCC[C@H](SCCC(C)(C)O)c1cccc(/C=C/c2ccc3ccc(Cl)cc3n2)c1)C(=O)O	2
C[C@H](CCC[C@H](SCCC(=O)N(C)C)c1cccc(/C=C/c2ccc3ccc(Cl)cc3n2)c1)C(=O)O	2.3
CC(CC[C@H](SCCCC(C)(C)O)c1cccc(/C=C/c2ccc3ccc(Cl)cc3n2)c1)CC(=O)O (stereo partly drawn)	0.5
CC(C)(CC[C@H](SCc1ccccn1)c1cccc(CCc2ccc3ccc(Cl)cc3n2)c1)CC(=O)O	1.6
CC(C)(O)c1ccccc1CS[C@@H](CCC1(CC(=O)O)CC1)c1cccc(CCc2ccc3ccc(Cl)cc3n2)c1	1.4

The remaining lines, values ahead:

IC50 [nM]	Compound
0.6	CC(C)(CC[C@H](SCc1ccccc1C(C)(C)O)c1cccc(CCc2ccc3ccc(Cl)cc3n2)c1)CC(=O)O
1	CC(C)(CC[C@@H](SCc1ccccc1C(C)(C)O)c1cccc(/C=C/c2ccc3ccc(Cl)cc3n2)c1)CC(=O)O
1.9	CC(C)(CC[C@@H](SCc1ccccc1C(C)(C)O)c1cccc(CCc2ccc3ccc(Cl)cc3n2)c1)CC(=O)O
0.6	CC(C)(CC[C@H](SCc1ccccc1C(C)(C)O)c1cccc(/C=C/c2ccc3ccc(Cl)cc3n2)c1)CC(=O)O
